Assay results as given in US20100129915A1, “METHODS FOR INDUCING CARDIOMYOGENESIS” (priority 2006, published 2010).

Experiments:
Type in all cases: cell-based
Murine ES cells [1] = assay: Immunohistochemistry of day 12 EBs with anti-Islet1 or anti-Tropomyosin; details: for number of Isl1-positive cells in EBs: anti-Islet1 immunohistochemistry; for number of Tropomyosin-positive cells in EBs: anti-Tropomyosin immunohistochemistry
Protocol: Immunohistochemistry and in situ hybridization. Whole or cryosectioned embryos and EBs were stained with the following antibodies: mouse anti-Islet1 (1:200) and anti-tropomyosin (1:100) (DSHB), goat anti-Wnt8a (15 μg/ml, R&D Systems), goat anti-β-catenin (1:50) and rat anti-cyclin D2 (1:100) (Santa Cruz Biotechnology), rabbit anti-phospho-Histone H3 (1:100, Upstate), and horseradish peroxidase-conjugated (with TSA plus Fluorescent Systems, PerkinElmer) secondary antibodies (The Jackson Laboratory). mRNA in situ hybridization was performed with designated antisense probes as described. Srivastava et al Science 270, 1995-9 (1995).
(§1) ES cell culture and gene expression analysis. Murine ES cells were propagated undifferentiated in maintenance medium consisting of Glasgow MEM (Sigma G5154) supplemented with 10% fetal bovine serum (FBS, Hyclone SH30071.03), 1 mM β-mercaptoethanol (Sigma M7522), 2 mM L-glutamine (Gibco-BRL 25030-081), 1 mM sodium pyruvate (Gibco-BRL 11360-070), 0.1 mM minimum essential medium containing nonessential amino acids, and LIF-conditioned medium (1:1000). EBs were formed by culturing ES cells (6×10^5/well) for 3 days in ultra-low-attachment six-well plates (Costar 07200601) in differentiation medium (DM), which contained the same components as maintenance medium but had 20% FBS and no LIF. For early treatment, the medium was replaced with DM containing Wnt3a (150 ng/ml, R&D systems) or Dkk1 (500 ng/ml, R&D systems) at the start of day 4; on day 6, the medium was replaced with fresh DM. For late treatment, DM was replaced with Wnt3a- or Dkk1-containing DM at the start of day 7 and switched to fresh DM on day 9. Respective media were changed for early-, late-, and un-treated EBs every 3 days. EBs were monitored for beating from days 8-12. EBs were collected between days 3 and 12 at regular intervals. For gene expression analysis, total RNA was isolated, and real-time PCR was performed with the ABI Prism system (7900HT, Applied Biosystems). All samples were run in triplicate. Real-time PCR data were normalized and standardized with SDS2.2 software.
FIGS. 4A-E. Canonical Wnt signaling regulates cardiac induction and differentiation in ES cells. a, Brachyury expression profiles, determined by quantitative real-time PCR (qPCR), of undifferentiated ES cells on day 0 and EBs harvested on days 3, 6, and 9 after early Wnt3a or Dkk-1 treatment compared to control. b, Beating EBs grown in suspension were counted from days 8-12. Percentage of beating EBs after early (days 4-6) or late (days 7-9) treatment with Wnt3a (left) or Dkk-1 (right). […] Fold change in expression of all indicated genes (y-axis) in EBs with respect to undifferentiated ES cells was assessed by qPCR. […]

Murine ES cells [2] = assay: Mesoderm and cardiac gene expression in EBs by quantitative real-time PCR; details: qPCR; for Bry (Brachyury) expression: early treatment after EB3, compared to control; for expression of early cardiac gene Nkx2.5 / expression of early cardiac gene Tbx5: exposure from EB4-6 (early treatment); for expression of early and late cardiac markers (cardiac gene expression): late treatment EB 7-9
Protocol: as §1
(§2) FIGS. 4A-E. Canonical Wnt signaling regulates cardiac induction and differentiation in ES cells. a, Brachyury expression profiles, determined by quantitative real-time PCR (qPCR), of undifferentiated ES cells on day 0 and EBs harvested on days 3, 6, and 9 after early Wnt3a or Dkk-1 treatment compared to control. b, Beating EBs grown in suspension were counted from days 8-12. Percentage of beating EBs after early (days 4-6) or late (days 7-9) treatment with Wnt3a (left) or Dkk-1 (right). Asterisks indicate significant difference in beating percentage of treatment groups versus untreated EBs (P<0.01). c, d Immunohistochemistry of day 12 EBs with anti-Islet1 (c) or anti-Tropomyosin (d). e, Cardiac gene expression after early (days 4-6, top) or late (days 7-9, bottom) treatment with Wnt3a or Dkk-1. EBs were harvested on days 3, 6 and 9 (early treatment) or days 6, 9, and 12 (late treatment). Fold change in expression of all indicated genes (y-axis) in EBs with respect to undifferentiated ES cells was assessed by qPCR. NS, not significant. *P<0.01.

Murine ES cells [3] = assay: Beating embryoid bodies (EBs) from ES cells grown in suspension; details: for number of beating EBs at EB12: early treatment EB4-6, Wnt3a 150 ng/ml or Dkk1 500 ng/ml, untreated 10%; for EBs beating by EB 12: late treatment EB 7-9, Wnt3a 150 ng/ml or Dkk1 500 ng/ml, control EBs 13%
Protocol: as §1, §2

[4] = test system: human embryonic stem (ES) cells (H9); assay: Beating of differentiating human ES cells treated with Wnt-3a
Protocol: Differentiating human embryonic stem (ES) cells (H9) were treated with Wnt-3a. […] Thus, canonical Wnt promotes human ES cells to differentiate into cardiomyocytes.

| Substance | number of Isl1-positive cells in EBs (Murine ES cells [1]) | number of Tropomyosin-positive cells in EBs (Murine ES cells [1]) | Bry (Brachyury) expression (Murine ES cells [2]) | expression of early cardiac gene Nkx2.5 (Murine ES cells [2]) | expression of early cardiac gene Tbx5 (Murine ES cells [2]) | expression of early and late cardiac markers (cardiac gene expression) (Murine ES cells [2]) | number of beating EBs at EB12 (Murine ES cells [3]) | EBs beating by EB 12 (Murine ES cells [3]) | number of beating hES cells [4] |
| --- | --- | --- | --- | --- | --- | --- | --- | --- | --- |
| Dkk1 | decreased | decreased | unaltered | downregulated | downregulated | not changed | complete absence of beating EBs | Approximately 10% | – |
| Wnt3a | increased | increased | unaltered | upregulated | upregulated | upregulated | over 50% | ~50% | significantly increased |
